From patent publication US20240150377A1, “MODULATORS OF CYSTIC FIBROSIS TRANSMEMBRANE CONDUCTANCE REGULATOR” (VERTEX PHARMACEUTICALS INCORPORATED, priority 2020, published 2024)
Read-outs that look alike come from different tables or passages of the source. One block for each compound: values may come before it.

Target: T1, CFTR (Homo sapiens, UniProt P13569, DEL508-508)
T1 construct: endogenous in cells; host or cells: primary human bronchial epithelial cells from CF subjects (F508del/MF-HBE), differentiated at air-liquid interface
T1 sequence (P13569 with tags, fused parts or gaps DEL508-508): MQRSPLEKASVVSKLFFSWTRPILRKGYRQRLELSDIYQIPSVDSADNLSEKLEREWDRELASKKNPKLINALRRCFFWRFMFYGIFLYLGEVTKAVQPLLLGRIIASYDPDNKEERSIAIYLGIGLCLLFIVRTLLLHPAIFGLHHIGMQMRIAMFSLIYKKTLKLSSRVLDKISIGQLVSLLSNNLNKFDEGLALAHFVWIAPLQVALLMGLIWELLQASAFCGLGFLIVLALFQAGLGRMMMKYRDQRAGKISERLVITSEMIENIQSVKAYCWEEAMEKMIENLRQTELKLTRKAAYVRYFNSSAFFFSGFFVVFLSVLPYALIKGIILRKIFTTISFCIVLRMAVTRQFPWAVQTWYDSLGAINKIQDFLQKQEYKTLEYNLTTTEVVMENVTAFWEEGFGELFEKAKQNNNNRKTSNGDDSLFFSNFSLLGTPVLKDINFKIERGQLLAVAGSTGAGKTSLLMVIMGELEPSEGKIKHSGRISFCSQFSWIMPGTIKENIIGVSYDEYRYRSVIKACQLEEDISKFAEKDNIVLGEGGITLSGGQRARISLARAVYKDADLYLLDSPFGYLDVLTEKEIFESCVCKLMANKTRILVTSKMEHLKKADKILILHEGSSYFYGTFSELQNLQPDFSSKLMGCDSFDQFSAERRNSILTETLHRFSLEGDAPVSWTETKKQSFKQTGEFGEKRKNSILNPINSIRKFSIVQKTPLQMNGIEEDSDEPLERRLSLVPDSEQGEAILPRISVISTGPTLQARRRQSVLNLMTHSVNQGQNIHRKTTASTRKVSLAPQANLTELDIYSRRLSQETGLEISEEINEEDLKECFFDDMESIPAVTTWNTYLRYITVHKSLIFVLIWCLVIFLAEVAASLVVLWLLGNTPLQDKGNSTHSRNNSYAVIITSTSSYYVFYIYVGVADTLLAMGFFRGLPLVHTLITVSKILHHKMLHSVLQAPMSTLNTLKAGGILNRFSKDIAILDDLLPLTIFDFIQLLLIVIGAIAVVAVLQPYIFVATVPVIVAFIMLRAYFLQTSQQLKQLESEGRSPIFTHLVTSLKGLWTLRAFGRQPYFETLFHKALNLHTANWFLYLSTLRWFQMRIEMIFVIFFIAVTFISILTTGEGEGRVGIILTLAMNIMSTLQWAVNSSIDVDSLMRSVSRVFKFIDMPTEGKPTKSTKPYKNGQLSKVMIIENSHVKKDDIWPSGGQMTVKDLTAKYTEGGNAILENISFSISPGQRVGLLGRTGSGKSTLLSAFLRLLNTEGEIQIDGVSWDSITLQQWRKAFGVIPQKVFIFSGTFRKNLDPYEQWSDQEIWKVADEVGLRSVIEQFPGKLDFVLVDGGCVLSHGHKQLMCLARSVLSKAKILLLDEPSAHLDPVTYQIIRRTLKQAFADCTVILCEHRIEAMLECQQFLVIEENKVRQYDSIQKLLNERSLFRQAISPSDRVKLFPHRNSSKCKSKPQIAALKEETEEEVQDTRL
Test: HBE assay: Ussing chamber assay of CFTR-mediated short-circuit currents
Assay type: cell-based
Settings: for EC50: read-out: HBE EC50
Outline: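 CFTR-mediated Isc (μA/cm²) equals the peak response to apical 20 μM forskolin minus the residual after a 20 μM each BPO/GlyH-101/CFTR inhibitor 172 cocktail, recorded in Ussing chambers at Vhold 0 mV, 37 °C, pH 7.4, with 30 μM apical amiloride. Cells were F508del/MF HBE cultures preincubated 18-24 h with corrector (concentration range or 10 μM) plus 1 μM ivacaftor in 20% human serum.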

[1] = Table 11, read-out: HBE Max Activity (%)
[2] = Table 13, at 10 μM, read-out: HBE Activity at 10 μM (%)
[3] = Table 13, read-out: HBE Max Activity (%)
[4] = HBE assay, read-out: HBE Max activity (%)
[5] = Table 12, read-out: HBE Max Activity (%)

EC50 (Table 11): < 1000 nM
Emax [1]: > 60%
SMILES: Cc1cccc(C)c1-c1cc2nc(n1)NS(=O)(=O)c1cccc(c1)C(=O)N(Cc1ccc(C3CCOCC3)cn1)[C@H](CC(C)(C)C)CO2 [Compound 52, (11R)-6-(2,6-Dimethylphenyl)-11-(2,2-dimethylpropyl)-2,2-dioxo-12-[(5-tetrahydropyran-4-yl-2-pyridyl)methyl]-9-oxa-2λ^6-thia-3,5,12,19-tetrazatricyclo[12.3.1.14,8]nonadeca-1(18),4(19),5,7,14,16-hexaen-13-one]

activation at 10 µM [2]: > 600%
SMILES: Cc1cccc(C)c1-c1cc2nc(n1)NS(=O)(=O)c1cccc(c1)C(=O)N(CC(=O)N1Cc3ccccc3C1)[C@H](CC(C)(C)C)CO2 [Compound 168]

EC50 (Table 13): 1000 to 3000 nM
Emax [3]: > 60%
SMILES: Cc1cccc(C)c1-c1cc2nc(n1)NS(=O)(=O)c1cccc(c1)C(=O)N(Cc1nccc(N(C)CC(C)(C)C)c1F)[C@H](CC(C)(C)C)CO2 [Compound 1155]

EC50 (HBE assay): < 1000 nM
Emax [4]: > 60%
SMILES: Cc1cccc(C)c1-c1cc2nc(n1)NS(=O)(=O)c1cccc(c1)C(=O)N(Cc1cncc(NC3CCOCC3)n1)[C@H](CC(C)(C)C)CO2 [Compound 1420]

EC50 (Table 13): < 1000 nM
Emax [3]: > 60%
SMILES: Cc1cccc(C)c1-c1cc2nc(n1)NS(=O)(=O)c1cccc(n1)C(=O)N(Cc1ncc(N3CCC(C)(C)C3=O)cn1)[C@H](CC(C)(C)C)CO2 [Compound 1141]

activation at 10 µM (HBE assay, 10 μM, read-out: HBE Activity at 10 μM (%)): > 60%
SMILES: Cc1cccc(C)c1-c1cc2nc(n1)NS(=O)(=O)c1cccc(c1)C(=O)N(Cc1cncc(N3CC[C@@H]4COC[C@@H]43)n1)[C@H](CC(C)(C)C)CO2 [Compound 1540]

EC50 (Table 12): < 1000 nM
Emax [5]: > 60%
SMILES: Cc1cccc(C)c1-c1cc2nc(n1)NS(=O)(=O)c1cccc(c1)C(=O)N(Cc1cncc(N(C)C3CCC34CCC4)n1)[C@H](CC(C)(C)C)CO2 (stereo partly shown) [Compound 437]

SMILES: COCC1CCCN1c1cccc(CN2C(=O)c3cccc(c3)S(=O)(=O)Nc3nc(cc(-c4c(C)cccc4C)n3)OC[C@H]2CC(C)(C)C)n1 (stereo partly drawn) [Compound 129, (11R)-6-(2,6-Dimethylphenyl)-11-(2,2-dimethylpropyl)-12-[[6-[2-(methoxymethyl)pyrrolidin-1-yl]-2-pyridyl]methyl]-2,2-dioxo-9-oxa-2λ^6-thia-3,5,12,19-tetrazatricyclo[12.3.1.14,8]nonadeca-1(18),4(19),5,7,14,16-hexaen-13-one]
EC50 (Table 10): < 1000 nM
activation at 10 µM (read-out: HBE Activity at 10 μM (%)): > 60%
Emax (read-out: HBE Max activity (%)): > 60%

activation at 10 µM [2]: > 600%
SMILES: Cc1cccc(C)c1-c1cc2nc(n1)NS(=O)(=O)c1cccc(c1)C(=O)N(CC(=O)NC1CCC13CCC3)[C@H](CC(C)(C)C)CO2 (stereo partly shown) [Compound 173]

EC50 (Table 12): < 1000 nM
Emax [5]: > 60%
SMILES: Cc1cccc(C)c1-c1cc2nc(n1)NS(=O)(=O)c1cccc(c1)C(=O)N(Cc1ncc(N3CCC(C)(C)CC3)cc1F)[C@H](CC(C)(C)C)CO2 [Compound 522]

activation at 10 µM (Table 10, at 10 μM, read-out: HBE activity at 10 (μM) (%)): > 60%
SMILES: Cc1cccc(C)c1-c1cc2nc(n1)NS(=O)(=O)c1cccc(c1)C(=O)N(Cc1ccn(C)n1)[C@H](CC(C)(C)C)CO2 [Compound 825]

EC50 (HBE assay): < 1000 nM
Emax [4]: > 60%
SMILES: Cc1cccc(C)c1-c1cc2nc(n1)NS(=O)(=O)c1cccc(c1)C(=O)N(Cc1ncc(O[C@@H](C)C(C)C)cn1)[C@H](CC1CC1)CO2 [Compound 1455]

EC50 (Table 13): < 1000 nM
Emax [3]: > 60%
SMILES: CCCCN(c1cccc(CN2C(=O)c3cccc(c3)S(=O)(=O)Nc3nc(cc(-c4c(C)cccc4C)n3)OC[C@H]2CC(C)(C)C)n1)C(C)C [Compound 1137]

EC50 (Table 11): < 1000 nM
Emax [1]: > 60%
SMILES: Cc1cccc(C)c1-c1cc2nc(n1)NS(=O)(=O)c1cccc(c1)C(=O)N(CCc1ccc(N3CCC(C)(C)C3)nc1)[C@H](CC(C)(C)C)CO2 [Compound 473]

EC50 (HBE assay): < 1000 nM
SMILES: CO[C@H]1C[C@@H](Oc2cnc(CN3C(=O)c4cccc(c4)S(=O)(=O)Nc4nc(cc(-c5c(C)cccc5C)n4)OC[C@H]3CC(C)C)nc2)C1 (stereo in doubt) [Compound 1462]

EC50 (Table 11): < 1000 nM
Emax [1]: > 60%
SMILES: Cc1cccc(C)c1-c1cc2nc(n1)NS(=O)(=O)c1cccc(c1)C(=O)N(Cc1cccc(-n3cc(C(C)(C)C)cn3)n1)[C@H](CC(C)(C)C)CO2 [Compound 732]
